Data taken from PubChem BioAssay (NCI).
“And” between values parts separate entries of the source, which are not always exact repeats. Identical values can stand only once.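 Method: 48-hour compound exposure of cells in 96-well plates, five concentrations, linear interpolation of endpoints. GI50 marks 50% less growth. TGI is the concentration that stops growth completely.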

Experiments:
Experiment in all cases: inhibition of tumour cell growth, NCI panel, 48 h
MDA-MB-435 = test system: MDA-MB-435
M19-MEL melanoma = test system: M19-MEL melanoma
SNB-78 CNS = test system: SNB-78 CNS
KM20L2 colon = test system: KM20L2 colon
RXF-631 renal = test system: RXF-631 renal
DLD-1 colon = test system: DLD-1 colon
DMS 114 small cell lung = test system: DMS 114 small cell lung
HOP-18 NSCLC = test system: HOP-18 NSCLC
MDA-N = test system: MDA-N

SMILES	GI50 (MDA-MB-435)	TGI (MDA-MB-435)	TGI (M19-MEL melanoma)	TGI (DMS 114 small cell lung)	also measured
O=C1Nc2cc(-c3ccc(O)cc3)ccc2/C1=C/c1ccc[nH]1	0.0708 µM	> 100 µM			
CC1=C(C(=O)NCc2ccccc2)C(c2ccc(N(C)C)cc2)C(C(=O)NCc2ccccc2)=C(C)N1			> 100 µM	> 100 µM	TGI (SNB-78 CNS): > 100 µM; TGI (KM20L2 colon): > 100 µM; TGI (RXF-631 renal): > 100 µM; TGI (DLD-1 colon): > 100 µM
O=C1c2ccccc2-c2c1c1ccc([N+](=O)[O-])cc1c(=O)n2CCN1CCOCC1	> 100 µM	> 100 µM			
Fc1cccc(-c2nc(-c3c[nH]c4ncccc34)cs2)c1	> 100 µM	> 100 µM			
COc1ccc(OC)c(-c2nc3sc(C)cn3c2/C=C2\C(=O)N(C)c3ccccc32)c1	4.04 µM	18.6 µM			
CCOC(=O)CC1C(CNC(=O)NC)OC(n2cnc3c(NC(=O)Nc4ccccc4)ncnc32)C1O[Si](C)(C)C(C)(C)C (stereo not drawn)	6.21 µM	> 100 µM			
CCCCCCCCCCCc1cc(=O)c2c(O)cccc2o1			> 100 µM	> 100 µM	TGI (SNB-78 CNS): > 100 µM; TGI (HOP-18 NSCLC): > 100 µM; TGI (RXF-631 renal): > 100 µM; TGI (DLD-1 colon): > 100 µM
COC(=O)C[C@@H]1CC=CC(=O)/C1=C(O)/C=C/c1ccccc1	0.357 µM	1.41 µM			
COc1ncc(-c2ccc3ncnc(Nc4cccc(Cl)c4)c3c2)cc1NS(C)(=O)=O	2.77 µM	17.3 µM			
C#CCn1c2c(c3ccccc3c1=O)C(=O)c1ccccc1-2		> 100 µM			TGI (MDA-N): > 100 µM
COc1ccc(C2C(C(=O)O)=C(CO)Oc3cc4c(cc32)OCO4)c(OC)c1 (stereo not drawn)			> 100 µM	> 100 µM	TGI (SNB-78 CNS): > 100 µM; TGI (HOP-18 NSCLC): > 100 µM; TGI (KM20L2 colon): > 100 µM; TGI (RXF-631 renal): > 100 µM; TGI (DLD-1 colon): > 100 µM
COc1ccc(-c2cncn2-c2ccc(-c3nc4cc(OC)c(OC)c(OC)c4s3)cc2)cc1N	3.13 µM	> 100 µM			
N#CC1=C(N)Oc2c(ccc3cccnc23)C1c1ccccc1 (stereo not drawn)	0.193 µM	0.661 µM	> 100 µM	7.98 µM	TGI (SNB-78 CNS): 9.36 µM; TGI (HOP-18 NSCLC): > 100 µM; TGI (DLD-1 colon): > 100 µM
O=c1c2cc(Br)ccc2n(C2OC(CO)C(O)C(O)C2O)c(=S)n1-c1ccccc1 (stereo not drawn)			> 100 µM	> 100 µM	TGI (SNB-78 CNS): > 100 µM; TGI (HOP-18 NSCLC): > 100 µM; TGI (KM20L2 colon): > 100 µM; TGI (DLD-1 colon): > 100 µM
[N-]=[N+]=Nc1nnc(CCCCc2nnc(N=[N+]=[N-])o2)o1			> 100 µM	> 100 µM	TGI (SNB-78 CNS): > 100 µM; TGI (HOP-18 NSCLC): > 100 µM; TGI (KM20L2 colon): > 100 µM; TGI (RXF-631 renal): 58.1 µM; TGI (DLD-1 colon): > 100 µM
CCCCCC/C=C\CCCCCCCCCc1cccc(OC)c1O		> 100 µM			TGI (MDA-N): > 100 µM
C=CC(=O)OCCCS(=O)(=O)[O-].C=CC(=O)OCCCS(=O)(=O)[O-].NC1CCCCC1N.[Pt+4]			> 25 µM		GI50 (M19-MEL melanoma): > 25 µM; GI50 (SNB-78 CNS): > 25 µM; TGI (SNB-78 CNS): > 25 µM; GI50 (HOP-18 NSCLC): > 25 µM; TGI (HOP-18 NSCLC): > 25 µM; GI50 (KM20L2 colon): > 25 µM; TGI (KM20L2 colon): > 25 µM; GI50 (DLD-1 colon): > 25 µM; TGI (DLD-1 colon): > 25 µM
C=CCC(O)c1cc(OC)ccc1OC (stereo not drawn)			> 100 µM	> 100 µM	TGI (RXF-631 renal): > 100 µM
O=C(Oc1c(Cl)c(Cl)c(Cl)c(Cl)c1Cl)C1CCCN1C(=O)OCc1ccccc1 (stereo not drawn)	4.11 µM	16.6 µM			

SMILES	GI50 (MDA-MB-435)	TGI (MDA-MB-435)	TGI (M19-MEL melanoma)	TGI (DMS 114 small cell lung)	also measured
O=C(/C=C/c1ccco1)N1CCN(Cc2ccccc2)CC1			> 100 µM	> 100 µM	TGI (SNB-78 CNS): > 100 µM; TGI (HOP-18 NSCLC): > 100 µM; TGI (KM20L2 colon): > 100 µM; TGI (RXF-631 renal): > 100 µM; TGI (DLD-1 colon): > 100 µM
Clc1ccc2c(NCCNc3nc(N4CCCCC4)nc4ccccc34)ccnc2c1	1.74 µM	3.43 µM			
COc1ccccc1C(=O)Nc1ccc(Cl)c(C(=O)OC(C)C)c1		> 100 µM	> 100 µM	63.8 µM	TGI (SNB-78 CNS): > 100 µM; TGI (MDA-N): > 100 µM; TGI (HOP-18 NSCLC): > 100 µM; TGI (KM20L2 colon): > 100 µM; TGI (RXF-631 renal): > 100 µM
CN1CCN(c2ccc(NC(=O)c3cncnc3Nc3ccc4c(ccn4Cc4cccc(F)c4)c3)cc2)CC1	0.625 µM	1.2 µM			
COc1ccccc1CNC(=O)/C=C/c1ccc(O)c(O)c1	58.3 µM	> 100 µM			
CCCCc1n(Cc2ccc3ccccc3n2)cc[n+]1Cc1ccc2ccccc2c1	0.661 µM	1.9 µM			
CC[C@H](C)C(=O)O[C@H]1C[C@@H](C)C=C2C=C[C@H](C)[C@H](CC[C@@H]3C[C@@H](O)CC(=O)O3)[C@H]21	20.2 µM and 15 µM	> 100 µM	> 30 µM	> 30 µM	TGI (HOP-18 NSCLC): > 30 µM; TGI (KM20L2 colon): > 30 µM; TGI (DLD-1 colon): > 30 µM
COc1cc2ccnc(-c3n[nH]c4cc(OC)c(OC)cc34)c2cc1OC			> 100 µM	> 100 µM	TGI (HOP-18 NSCLC): > 100 µM; TGI (KM20L2 colon): > 100 µM; TGI (RXF-631 renal): 93.4 µM
COc1ccc(/C=N/C2=NNC(C)(c3ccccc3O)N2C(Cc2c[nH]c3ccccc23)C(=O)O)cc1 (stereo not drawn)	1.7 µM	5.68 µM			
CC(=O)Nc1ccc(S(=O)(=O)N/N=C(\C)CN2C(=O)c3ccccc3C2=O)cc1			> 100 µM		TGI (SNB-78 CNS): > 100 µM; TGI (HOP-18 NSCLC): > 100 µM; TGI (KM20L2 colon): > 100 µM; TGI (DLD-1 colon): > 100 µM
CCN1Cc2c(/C=C/c3ccccc3)nc3ccc(OC)cc3c2N(c2cccc(Cl)c2)C1	1.81 µM	3.7 µM			
CCN(CC)CCC(CNc1c(C)cnc2cc(Cl)ccc12)c1ccc(Cl)c(Cl)c1 (stereo not drawn)	1.77 µM	3.4 µM			
COC(=O)C1OC(SCCN)C(O)C(O)C1O (stereo not drawn)		> 100 µM			TGI (MDA-N): > 100 µM
CC(C(=O)c1ccc(O)cc1)C1(O)C(=O)Nc2c(Cl)cc(Cl)cc21 (stereo not drawn)			57.6 µM	24.2 µM	TGI (SNB-78 CNS): > 85.5 µM; TGI (KM20L2 colon): > 100 µM; TGI (RXF-631 renal): > 100 µM; TGI (DLD-1 colon): > 100 µM
CCN1C(=O)N[C@H]2[C@@H]3NC(=O)c4ccc(Cl)n4[C@@H]3C[C@]21O	1.05 µM	11.1 µM			
Cn1c(=O)c2[nH]c(CCS)nc2n(C)c1=O		> 100 µM			TGI (MDA-N): > 100 µM
CCN(CC)CCOc1ccccc1-n1c(C)ccc1-c1ccccc1	14.4 µM	29.9 µM			
O=C1c2ccccc2-c2c1c1ccc3ccccc3c1n2-c1ccccc1	97.9 µM	> 100 µM			
COc1ccc(-n2nc(C(=O)NCC(=O)Nc3nc4cc(OC)ccc4s3)c3ccccc3c2=O)cc1	0.641 µM	14.3 µM			
